In patent US9828369B2, “Isoquinoline derivatives useful as inhibitors of diacylglyceride O-acyltransferase 2” (Merck Sharp & Dohme Corp., priority 2014, dated 2017) one finds IC50 data, which are given here for 4 molecules.

The target in this experiment is hDGAT2 (Homo sapiens (Human), UniProt Q96PD7). Kind of experiment: DGAT2 enzymatic activity assay (triolein formation, LC/MS/MS). Particulars: read-out: IC50 values for inhibition of DGAT2; membrane prep of Sf-9 cells expressing hDGAT2; 25 μM diolein, 10 μM oleoyl-CoA; room temperature; triolein by LC/MS/MS.
hDGAT2, sequence (Q96PD7 whole entry): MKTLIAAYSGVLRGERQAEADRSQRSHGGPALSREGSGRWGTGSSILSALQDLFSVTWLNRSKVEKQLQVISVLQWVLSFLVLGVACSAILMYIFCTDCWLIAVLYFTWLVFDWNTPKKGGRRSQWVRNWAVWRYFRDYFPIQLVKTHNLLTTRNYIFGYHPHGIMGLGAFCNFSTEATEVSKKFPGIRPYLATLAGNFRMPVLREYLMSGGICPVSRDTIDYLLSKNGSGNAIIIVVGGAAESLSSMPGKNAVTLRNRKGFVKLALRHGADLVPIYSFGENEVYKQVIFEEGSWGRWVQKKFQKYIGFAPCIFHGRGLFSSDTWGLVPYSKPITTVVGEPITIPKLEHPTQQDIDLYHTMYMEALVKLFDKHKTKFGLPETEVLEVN

One may read the IC50 as the concentration needed to halve the response being measured. As for `COc1cccc(-c2ccc(CNC(=O)C(F)(F)c3ccc(Br)cn3)c3cnccc23)c1` [Example 116, 2-(5-bromopyridin-2-yl)-2,2-difluoro-N-((5-(3-methoxyphenyl)isoquinolin-8-yl)methyl)acetamide], the IC50 was determined as 8130 nM.

`COc1cccc(-c2ccc(CNC(=O)Cc3ccc(Cl)cc3)c3cnccc23)c1` [Example 47, 2-(4-chlorophenyl)-N-((5-(3-methoxyphenyl)isoquinolin-8-yl)methyl)acetamide]: the IC50 was 1400 nM.

In the case of `COc1cccc(-c2ccc(CNC(=O)C34CC(C3)C4)c3cnccc23)c1` [Example 130, N-((5-(3-methoxyphenyl)isoquinolin-8-yl)methyl)bicyclo[1.1.1]pentane-1-carboxamide], the IC50 came to 268 nM.

Take `COc1cccc(-c2ccc(CNC(=O)c3cc(Br)cnc3F)c3cnccc23)c1` [Example 131, 5-bromo-2-fluoro-N-((5-(3-methoxyphenyl)isoquinolin-8-yl)methyl)nicotinamide]: the IC50 worked out at 400 nM.
